Test system: UOK cells with/without FLCN expression
Assay: Effect of low-concentration rapamycin on cell proliferation (preliminary data)
Conditions: 1 nmol/L rapamycin; data not shown

## CO[C@H]1C[C@@H]2CC[C@@H](C)[C@@](O)(O2)C(=O)C(=O)N2CCCC[C@H]2C(=O)O[C@H]([C@H](C)C[C@@H]2CC[C@@H](O)[C@H](OC)C2)CC(=O)[C@H](C)/C=C(\C)[C@@H](O)[C@@H](OC)C(=O)[C@H](C)C[C@H](C)/C=C/C=C/C=C/1C [rapamycin]
  reduction on cell proliferation: 10%-15

— patent publication US20130150317A1, “COMPOUNDS FOR THE TREATMENT OF RENAL CELL CARCINOMA” (Myrovlytis Technology Ventures Limited, priority 2010, published 2013)
